For one assay, the target named is T1, 1-169 K-Ras(M72C) GDP (Homo sapiens, UniProt P01116, M72C).
T1 construct: Untagged recombinant 1-169 K-Ras(M72C) GDP; His6 (cleaved yes); made in house; host or cells: Escherichia coli BL21(DE3)
Nature of the assay: Disulfide tethering screen, percent modification by intact protein mass spectrometry. In kind it is binding. The settings on record: screening βME 1 mM. The text has this: In some embodiments, a library of disulfide compounds may be screened against a cysteine-containing protein in the presence of a reducing agent such as β-mercaptoethanol (BME). Compounds with complementary binding contacts with a region of the protein near the cysteine may shift the disulfide exchange equilibrium away from BME modification of the cysteine thiol and enhance the ratio of the hit ligand bound to the cysteine. The resulting mass change of the protein can be readily detected by mass spectrometry, and the percentage of modified protein can be used as a measure of potency. Compounds which exchange with the cysteine without conferring affinity should exchange with reducing agent equally well and will not shift the equilibrium toward protein modification. The potency of various compounds at a given concentration of BME may be compared by calculating the dose-response 50 (DR50), which is the concentration of compound at which the protein becomes 50% modified.
A tethering library of 960 disulfides were screened against 1-169 K-Ras(M72C) GDP using intact protein mass spectrometry to monitor percent modification (See Methods, and FIG. 37). […] To better prioritize tethering fragments, a βME50 value (the concentration of βME needed to reduce disulfide fragment modification to 50%) was determined for each compound. […]

The target of assay [1] is T2, full-length wild-type K-Ras (Homo sapiens, UniProt P01116).
T2 construct: His6; made in house; host or cells: Escherichia coli BL21(DE3)
T2 sequence (P01116 1-188 isoform P01116-2): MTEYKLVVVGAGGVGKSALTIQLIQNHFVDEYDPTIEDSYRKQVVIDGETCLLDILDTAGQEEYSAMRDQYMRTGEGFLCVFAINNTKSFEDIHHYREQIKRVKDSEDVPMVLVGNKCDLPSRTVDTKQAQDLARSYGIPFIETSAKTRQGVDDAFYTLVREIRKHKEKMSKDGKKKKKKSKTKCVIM
The experiment in a line: Disulfide fragment labeling of full-length wild-type K-Ras (Cys 72 selectivity). In kind it is binding. The settings on record: wild-type K-Ras contains 4 native cysteine residues.

Assay [2] addresses T3, H-Ras(M72C) GDP binding to SOScat (Homo sapiens, UniProt P01112, M72C).
T3 construct: and H-Ras (residues 1-166) were transformed into Escherichia coli; His6; made in house; host or cells: Escherichia coli BL21(DE3)
The experiment in a line: SOScat pull-down of H-Ras(M72C) GDP. The settings on record: SOScat pull-down of H-Ras(M72C) GDP at various concentrations of H-Ras.

Another assay has as its target H-Ras(M72C) GDP (Homo sapiens, UniProt P01112, M72C). Nature of the assay: Intrinsic nucleotide affinity by EDTA catalyzed nucleotide exchange (Raf-1-RBD pull down readout). In kind it is biochemical. Also noted: and H-Ras (residues 1-166) were transformed into Escherichia coli; His6; made in house; host or cells: Escherichia coli BL21(DE3). The protocol: Intrinsic Nucleotide Affinity by EDTA Catalyzed Nucleotide Exchange. For each EDTA catalyzed reaction, the total reaction volume was 500 μL. Each reaction had the following final composition: 100 nM Ras GDP (1 μg, 5 μL of 0.2 mg/mL Ras stock), 75 nM BSA (2.5 μg, 5 μL of 0.5 mg/mL BSA stock), 100 μM total nucleotide concentration (5 μL of various ratios of GDP:GppNHp from 10 mM stock solutions), 10 mM of EDTA (10 μL of 0.5M EDTA pH 8.0), 64 mM of MgCl2 (16 μL of 2M MgCl2 stock), 3 μM of His6-MBP-Raf-1-RBDwitt (80 μg, 18.3 μL of 4.38 mg/mL stock of His6-MBP-Raf-1-RBDwitt), and Raf Pull Down Buffer to volume (25 mM Tris (pH 7.2), 150 mM NaCl, 5 mM MgCl2, 1% NP-40, 5% glycerol, 20 mM imidazole). Prior to initiating the EDTA catalyzed nucleotide exchange, the Ras, BSA, nucleotide, and Raf Pull Down Buffer were mixed by pipette on ice. To each tube, the EDTA was added, sample was inverted X 3, and then placed in a pre-warmed tube rack at 30° C. The exchange was allowed to occur at 30° C. for 15 minutes, inverting each tube X 3 every 5 minutes. Once the 15 minutes of exchange was complete, MgCl2 was added to each tube and inverted X 3 and placed on ice for 15 minutes. During the quenching on ice, add 100 μL Ni-NTA slurry (Qiagen) to a cellulose acetate spin cup and spin at 5,000 rpm on a tabletop centrifuge for 30 seconds. Wash the beads with 400 μL of Raf Pull Down Buffer to wash away bead storage buffer. Before adding the beads and His6-tagged Raf-1-RBDwitt, take a 10 μL sample as a loading control and quench it with 5 μL 5×SDS loading buffer. To each spin cup filled with washed Ni-NTA beads, add the quenched EDTA catalyzed exchange reaction and the His6-tagged Raf-1-RBDwitt. Seal the spin cup with parafilm and let rotate at 4° C. for 1 h. After mixing, centrifuge the sample for 30 seconds at 5,000 rpm. Toss flow through. Wash the beads×5 with 400 μL of Raf Pull Down Buffer. After last wash, centrifuge one last time to remove any excess buffer stuck to the beads. To each cup, add 50 μL of 5×SDS loading buffer and mix by vortexing. Let the buffer sit on the beads for 5 minutes and then elute into a fresh tube by centrifuging at 5000 rpm for 1.5 minutes. Load 10 μL of each loading control sample and 25 μL of each eluted pull down onto a SDS-PAGE gel and transfer to a nitrocellulose blot for Western Blot analysis. Block with 5% BSA TBS buffer and then blot with pan Ras primary antibody at a 1:500 dilution in 5% BSA in TBST (Cell Signaling #3965). Blots were read out using LICOR compatible secondary antibodies and quantified. Signal from each GDP-only (i.e. 0% GppNHp) exchange was subtracted as background from the 20%, 50%, and 66% GppNHp pull-down signals for each protein construct. The signal for the GppNHp only lane (i.e. 100% GppNHp) was normalized to 1 and all other signals were made relative to this band within each protein construct tested.

For a further assay, the target named is H-Ras(M72C) GppNHp (Homo sapiens, UniProt P01112, M72C). Nature of the assay: βME50 and percent labeling of tethering fragments, GppNHp state. In kind it is binding. Further details: Labeling studies were conducted using the 1-166 H-Ras(M72C) construct containing all endogenous cysteines; His6; made in house; host or cells: Escherichia coli BL21(DE3). The protocol:
FIG. 32. […] Percent labeling against H-Ras(M72C) GDP and GppNHp at the screening βME concentration (1 mM) are graphed.
A tethering library of 960 disulfides were screened against 1-169 K-Ras(M72C) GDP using intact protein mass spectrometry to monitor percent modification (See Methods, and FIG. 37). […] To better prioritize tethering fragments, a βME50 value (the concentration of βME needed to reduce disulfide fragment modification to 50%) was determined for each compound. A higher βME50 value corresponds to a better fragment as it can bind with increasing concentrations of competitive thiol (Erlanson et al., 2004; Yang et al., 2009).

This note sets out measurements from patent US11136297B2, “Compositions and methods for treating cancer” (THE REGENTS OF THE UNIVERSITY OF CALIFORNIA, priority 2016, dated 2021).

Molecules are shown by their SMILES.

T1 sequence (P01116 1-169 isoform P01116-2 M72C): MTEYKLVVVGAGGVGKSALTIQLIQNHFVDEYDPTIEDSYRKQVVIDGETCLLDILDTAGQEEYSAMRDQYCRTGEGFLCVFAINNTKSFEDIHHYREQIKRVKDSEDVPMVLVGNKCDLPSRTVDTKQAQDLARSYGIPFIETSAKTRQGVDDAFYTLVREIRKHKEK

`COc1ccc(-n2ncc(C(=O)NCCCSSCCN(C)C)c2C(F)(F)F)cc1` [Compound 2C07, N-(3-((2-(dimethylamino)ethyl)disulfanyl)propyl)-1-(4-methoxyphenyl)-5-(trifluoromethyl)-1H-pyrazole-4-carboxamide] returned a percent modification at 1-169 K-Ras(M72C) GDP of 69.7%. In assay [1], the “modification of full-length wild-type K-Ras” value was “did not modify”. Besides, in assay [2], the SOS binding entry is “inhibits SOS binding”. The “Normalized Average (Nucleotide Exchange PD Assay)” value came to 1.00 at H-Ras(M72C) GDP (H-Ras(M72C) 2C07, GppNHp only, normalized to 1); 0.00 on H-Ras(M72C) GDP (H-Ras(M72C) 2C07, GTP:GDP 0, background subtracted); 0.03 on H-Ras(M72C) GDP (H-Ras(M72C) 2C07, GTP:GDP 0.2, relative to GppNHp-only signal); 0.12 on H-Ras(M72C) GDP (H-Ras(M72C) 2C07, GTP:GDP 0.5, relative to GppNHp-only signal); 0.13 on H-Ras(M72C) GDP (H-Ras(M72C) 2C07, GTP:GDP 0.67, relative to GppNHp-only signal). The “nucleotide preference of 2C07 bound Ras” value at H-Ras(M72C) GDP (varying ratios of GDP:GppNHp, EDTA catalyzed exchange) is “nucleotide preference for GDP over GppNHp”. Further, the βME50 on H-Ras(M72C) GppNHp (H-Ras(M72C) GppNHp, βME concentration that reduces fragment modification to 50%) came to 1.10 mM. Moreover, the “labeling of H-Ras(M72C) GppNHp” value at H-Ras(M72C) GppNHp (disulfide tethering at Cys 72) was “readily modifies”.
